One assay has as its system POLE. The assay can be described thus: Titration nHU, Western blot, endogenous POLE in Jurkat extract. It is filed as binding, human. The settings on record: source data of Fig 5, titration nHU, Jurkat extract; unit inferred. The source says:
(§1) To identify the partners of NPF motifs, we used the native holdup (nHU) assay that was recently developed by our team (Fig. 1B). The holdup approach has been extensively used to determine equilibrium dissociation constants of transient interactions mediated by PDZ and SH3 domains, 14-3-3, and human papilloma virus E6 proteins, and even nucleic acid-protein interactions[7],[30]–[35]. In the nHU experiments, a purified bait molecule, or a control compound, is immobilized on a resin at high concentration (typically 10 μM, or higher) and these resin stocks are subsequently mixed with dilute cell extracts. After a relatively long incubation, i.e., 2 h at 4 °C, the liquid phase is separated by centrifugation. This liquid phase contains the unbound prey molecules at near binding equilibrium that can be quantified using selective and quantitative analytical approaches, such as mass spectrometry. Therefore, proteins that interact with the bait molecule will appear to be depleted in the solvent phase and by measuring its relative concentration compared to the control nHU experiment, the degree of binding (θ) can be determined that can be converted to apparent steady-state dissociation constants, according to:1 θ=1−Ifree/Itot=Cbait/Cbait+Kapp where Itot and Ifree are the measured total and bait-depleted equilibrium mass spectrometry total ion intensities of prey proteins, Cbait is the bait molecule concentration and Kapp is the apparent dissociation constant.
(§2) Jurkat E6.1 cells (ECACC #88042803, RRID: CVCL_0367) were grown in RPMI (Gibco) medium completed with 10% FBS (Gibco BRL) and 40 μg/ml gentamicin (Gibco/Life Technology). To prepare total cell extracts, Jurkat cells were seeded onto T-175 flasks and grew until 3 × 10^6 cells/ml confluency. Cells were collected by 1000 g x 5 min centrifugation, washed with PBS and then lysed in ice-cold lysis buffer (Hepes-KOH pH 7.5 50 mM, NaCl 150 mM, Triton X-100 1%, cOmplete EDTA-free protease inhibitor cocktail 5x, TCEP 5 mM, glycerol 10%).
(§3) Cell suspensions were sonicated 4×20 sec with 1 sec long pulse on ice, then incubated rotating at 4 °C for 30 min. The lysates were centrifuged at 12,000 rpm 4 °C for 20 min and supernatant was kept. Total protein concentration was measured by standard Bradford method (Bio-Rad Protein Assay Dye Reagent #5000006) using a BSA calibration curve (MP Biomedicals #160069, diluted in lysis buffer) on a Bio-Rad SmartSpec 3000 spectrophotometer instrument.
(§4) Titration holdup experiments were carried out as described above using 25 μl saturated resins prepared. Briefly, we mixed control, or bait-saturated resins at various proportions by keeping the total resin amount and resin-analyte ratio constant during the experiment (for 25 μl we used 100 μl cell extract as analyte). In titration experiments with protein baits, bait concentration was determined as described above for the saturated resin stocks. Experiments were carried out at 4 °C for 2 h and recovered supernatants were subjected to western blot or dot blot analysis.
For Western blot, samples were mixed with 4x Laemmli Sample Buffer in 3:1 ratio. Equal amounts of samples were loaded on 6-10% acrylamide-gels (generally 16 μg). Transfer was done into PVDF membranes using a Trans-Blot Turbo Transfer System and Trans-Blot Turbo RTA Transfer Kit (BioRad, #1704275). For Dot blot, nHU samples were directly loaded on Nitrocellulose membranes using 48 Sample vacuum manifold (Cleaver Scientific) following the manufacturer’s recommendations.
After 1 h of blocking in 5% milk, membranes were incubated overnight at 4 °C with primary antibodies in 5% milk-TBS-Tween.
For orientation: In western blotting, separated proteins are transferred to a membrane and probed.

In a further assay the target is T1, EPS15 (Homo sapiens, UniProt P42566).
T1 construct: endogenous in cells; host or cells: Jurkat E6.1
T1 sequence (P42566 1-896): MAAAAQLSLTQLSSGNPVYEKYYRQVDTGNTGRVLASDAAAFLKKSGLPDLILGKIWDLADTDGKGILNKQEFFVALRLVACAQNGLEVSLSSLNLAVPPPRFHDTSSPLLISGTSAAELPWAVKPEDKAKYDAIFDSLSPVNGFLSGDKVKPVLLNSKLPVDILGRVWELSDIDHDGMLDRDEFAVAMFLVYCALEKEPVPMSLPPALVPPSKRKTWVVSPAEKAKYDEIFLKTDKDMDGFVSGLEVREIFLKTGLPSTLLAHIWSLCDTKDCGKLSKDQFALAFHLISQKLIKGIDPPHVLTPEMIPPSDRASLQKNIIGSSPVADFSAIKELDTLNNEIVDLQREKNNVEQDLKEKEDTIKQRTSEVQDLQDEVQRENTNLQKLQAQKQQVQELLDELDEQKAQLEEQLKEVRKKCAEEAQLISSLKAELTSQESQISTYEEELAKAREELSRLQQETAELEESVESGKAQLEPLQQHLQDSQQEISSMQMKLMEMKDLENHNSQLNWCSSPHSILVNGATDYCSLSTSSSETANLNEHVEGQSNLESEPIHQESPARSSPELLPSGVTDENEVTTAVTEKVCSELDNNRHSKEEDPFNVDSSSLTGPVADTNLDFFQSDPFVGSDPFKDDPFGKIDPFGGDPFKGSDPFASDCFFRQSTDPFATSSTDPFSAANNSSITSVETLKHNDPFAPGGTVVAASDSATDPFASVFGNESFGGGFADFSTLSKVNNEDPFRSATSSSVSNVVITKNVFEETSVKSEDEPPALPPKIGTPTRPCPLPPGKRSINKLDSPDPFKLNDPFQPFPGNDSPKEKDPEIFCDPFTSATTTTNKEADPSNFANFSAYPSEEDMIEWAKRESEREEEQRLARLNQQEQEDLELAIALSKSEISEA
Nature of the assay: Titration nHU, Western blot, endogenous EPS15 in Jurkat extract. It is filed as binding. As to conditions: source data of Fig 5, titration nHU, unit inferred.
Text: as §1, §2, §3, §4
For Western blot, samples were mixed with 4x Laemmli Sample Buffer in 3:1 ratio. Equal amounts of samples were loaded on 6-10% acrylamide-gels (generally 16 μg). Transfer was done into PVDF membranes using a Trans-Blot Turbo Transfer System and Trans-Blot Turbo RTA Transfer Kit (BioRad, #1704275). For Dot blot, nHU samples were directly loaded on Nitrocellulose membranes using 48 Sample vacuum manifold (Cleaver Scientific) following the manufacturer’s recommendations. […]

Residues, ends and D or L forms follow the SMILES beside them.

As for `CC(C)C[C@H](NC(=O)[C@H](CCCNC(=N)N)NC(=O)[C@H](C)NC(=O)[C@H](Cc1ccccc1)NC(=O)[C@@H]1CCCN1C(=O)[C@H](CC(N)=O)NC(=O)[C@H](CCCNC(=N)N)NC(=O)[C@H](CCCNC(=N)N)NC(=O)[C@H](C)NC(=O)[C@H](C)NC(=O)[C@H](CC(=O)O)NC(=O)[C@H](CC(C)C)NC(=O)[C@H](CCCNC(=N)N)NC(=O)[C@H](C)NC(=O)[C@H](Cc1ccccc1)NC(=O)[C@@H]1CCCN1C(=O)[C@H](CC(N)=O)NC(=O)[C@H](CCCNC(=N)N)NC(=O)[C@H](CCCNC(=N)N)NC(=O)[C@H](C)NC(=O)[C@H](CC(=O)O)NC(=O)[C@H](CC(C)C)NC(=O)[C@H](CCCNC(=N)N)NC(=O)[C@H](C)NC(=O)[C@H](Cc1ccccc1)NC(=O)[C@@H]1CCCN1C(=O)[C@H](CC(N)=O)NC(=O)[C@H](CCCNC(=N)N)NC(=O)[C@H](CCCNC(=N)N)NC(=O)[C@H](C)NC(=O)[C@H](C)NC(=O)CCCCCNC(=O)CCCC[C@@H]1SC[C@@H]2NC(=O)N[C@@H]21)C(=O)N[C@@H](CC(=O)O)C(N)=O` [3xDONSON] (HELM PEPTIDE1{[O=C1N[C@H]2[C@H](CS[C@H]2CCCCC(=O)[*:2])N1].[O=C(CCCCCN[*:1])[*:2]].A.A.R.R.N.P.F.A.R.L.D.A.R.R.N.P.F.A.R.L.D.A.A.R.R.N.P.F.A.R.L.D.[am]}$$$$V2.0), the dissociation constant (Kd) in the assay on POLE is 0.1 µM; on EPS15 it was 0.8 µM.
The matching figures for `C[C@H](NC(=O)[C@H](C)NC(=O)[C@@H]1CCCN1C(=O)CNC(=O)CCCCCNC(=O)CCCC[C@@H]1SC[C@@H]2NC(=O)N[C@@H]21)C(=O)N[C@@H](C)C(=O)N[C@@H](CCCNC(=N)N)C(=O)N[C@@H](CCCNC(=N)N)C(=O)N[C@@H](CC(N)=O)C(=O)N1CCC[C@H]1C(=O)N[C@@H](Cc1ccccc1)C(=O)N[C@@H](CO)C(=O)N[C@@H](CC(=O)O)C(=O)N[C@@H](CCCNC(=N)N)C(=O)N[C@@H](CC(=O)O)C(=O)N[C@@H](CC(N)=O)C(=O)N[C@@H](CCCNC(=N)N)C(=O)N1CCC[C@H]1C(=O)N[C@@H](CCCNC(=N)N)C(N)=O` [DONSON_SYNJ1_C] (HELM PEPTIDE1{[O=C1N[C@H]2[C@H](CS[C@H]2CCCCC(=O)[*:2])N1].[O=C(CCCCCN[*:1])[*:2]].G.P.A.A.A.R.R.N.P.F.S.D.R.D.N.R.P.R.[am]}$$$$V2.0): 8.5 µM and over 20 µM.
As to `C[C@H](NC(=O)[C@H](C)NC(=O)[C@@H]1CCCN1C(=O)CNC(=O)CCCCCNC(=O)CCCC[C@@H]1SC[C@@H]2NC(=O)N[C@@H]21)C(=O)N[C@H](C(=O)N[C@@H](CCCNC(=N)N)C(=O)N[C@H](C(=O)N[C@@H](CC(N)=O)C(=O)N1CCC[C@H]1C(=O)N[C@@H](Cc1ccccc1)C(=O)N[C@@H](CO)C(=O)N[C@@H](CC(=O)O)C(=O)N[C@@H](CCCNC(=N)N)C(=O)N[C@@H](CC(=O)O)C(=O)N[C@@H](CC(N)=O)C(=O)N[C@@H](CCCNC(=N)N)C(=O)N1CCC[C@H]1C(=O)N[C@@H](CCCNC(=N)N)C(N)=O)[C@@H](C)O)[C@@H](C)O` [DONSON_SYNJ1_NC] (HELM PEPTIDE1{[O=C1N[C@H]2[C@H](CS[C@H]2CCCCC(=O)[*:2])N1].[O=C(CCCCCN[*:1])[*:2]].G.P.A.A.T.R.T.N.P.F.S.D.R.D.N.R.P.R.[am]}$$$$V2.0), the Kd with POLE and at EPS15 was over 200 µM in each case.
With `CC(C)C[C@H](NC(=O)[C@H](CCCNC(=N)N)NC(=O)[C@H](C)NC(=O)[C@H](Cc1ccccc1)NC(=O)[C@@H]1CCCN1C(=O)[C@H](CC(N)=O)NC(=O)[C@@H](NC(=O)[C@H](CCCNC(=N)N)NC(=O)[C@@H](NC(=O)[C@H](C)NC(=O)[C@H](C)NC(=O)[C@@H]1CCCN1C(=O)CNC(=O)CCCCCNC(=O)CCCC[C@@H]1SC[C@@H]2NC(=O)N[C@@H]21)[C@@H](C)O)[C@@H](C)O)C(=O)N[C@@H](CC(=O)O)C(=O)N[C@@H](CC(N)=O)C(=O)N[C@@H](CCCNC(=N)N)C(=O)N1CCC[C@H]1C(=O)N[C@@H](CCCNC(=N)N)C(N)=O` [DONSON_SYNJ1_N] (HELM PEPTIDE1{[O=C1N[C@H]2[C@H](CS[C@H]2CCCCC(=O)[*:2])N1].[O=C(CCCCCN[*:1])[*:2]].G.P.A.A.T.R.T.N.P.F.A.R.L.D.N.R.P.R.[am]}$$$$V2.0), the values for the Kd with POLE and on EPS15 were 9.4 µM and over 30 µM, respectively.

A word on the Kd: it is the concentration at which binding is half-saturated.

The record behind these values is publication PMC12808100, “The non-catalytic DNA polymerase ε subunit is an NPF motif recognition protein” (Nature Communications, 2025).
